Measurements published in the supplement of paper PMC10307832.

Compound: CC1(COc2ccc3c(c2)ncn3-c2ccc3cccc(N4CCC(N)CC4)c3n2)COC1 [Crenolanib] + Cc1nc(Nc2ncc(C(=O)Nc3c(C)cccc3Cl)s2)cc(N2CCN(CCO)CC2)n1 [Dasatinib] (partner 0.075 µM)
Assay: relative viability (nuclei count vs DMSO), 5 days (fraction); higher = more cells survive
Conditions: first compound 1 µM
In short: (§1)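 Medians of duplicate plates are given as relative viability. That measure is the nuclei count in treated wells divided by the count in vehicle wells. Counts were taken on 4× images of lung cancer cell lines in 1536-well plates, 5 days after pin-tool dosing the day after seeding with one drug alone or a fixed anchor-drug dose plus five library-drug doses (not always all listed) in √10 steps.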

Row | Cell Line | relative viability
1 | SK-MES-1 | 0.358
2 | HARA | 0.292
3 | COR-L23 | 0.417
4 | COR-L 105 | 0.411
5 | LC-2-ad | 0.533
6 | LU99A | 0.522
7 | ChaGo-K-1 | 0.604
8 | NCI-H2170 | 0.641
9 | NCI-H3122 | 0.972
10 | HCC-78 | 0.275
11 | SW 900 | 0.404
12 | LXF-289 | 0.229
13 | BEN | 0.323
14 | HCC-15 | 0.545
15 | HCC-827 | 0.396
16 | NCI-H1563 | 0.452
17 | NCI-H1792 | 0.747
18 | HCC-366 | 0.519

Compound: CC1(COc2ccc3c(c2)ncn3-c2ccc3cccc(N4CCC(N)CC4)c3n2)COC1 [Crenolanib] + O=C(CCCCCCC(=O)Nc1ccccc1)NO [Vorinostat] (partner 1 µM)
Assay: as above
Conditions: first compound 0.01 µM
In short: as §1

Row | Cell Line | relative viability
19 | NCI-H522 | 1
20 | NCI-H838 | 0.747
21 | NCI-H1651 | 0.604
22 | NCI-H1734 | 0.852
23 | NCI-H2009 | 0.847
24 | EPLC-272H | 0.435
25 | PC-14 | 0.95
26 | LCLC-97TM1 | 0.822
27 | NCI-H596 | 0.586
28 | NCI-H2228 | 0.721
29 | EMC-BAC-2 | 0.47
30 | NCI-H2087 | 0.657
31 | HCC-44 | 1.06
32 | NCI-H647 | 0.631
33 | LK-2 | 0.326
34 | NCI-H2126 | 0.8
35 | NCI-H2342 | 0.729
36 | SK-MES-1 | 1.15

Row | Cell Line | relative viability
37 | HARA | 0.568
38 | COR-L23 | 0.553
39 | COR-L 105 | 0.842
40 | LC-2-ad | 0.726
41 | LU99A | 0.58
42 | ChaGo-K-1 | 0.721
43 | NCI-H2170 | 0.793
44 | NCI-H3122 | 0.976
45 | IA-LM | 1.06
46 | HCC-78 | 0.441
47 | SW 900 | 0.548
48 | LXF-289 | 0.734
49 | BEN | 0.569
50 | HCC-15 | 0.954
51 | NCI-H1648 | 0.599
52 | HCC-827 | 0.985
53 | HCC-366 | 0.377

Same assay, conditions: first compound 0.03162 µM

Row | Cell Line | relative viability
54 | NCI-H522 | 0.876
55 | NCI-H838 | 0.74
56 | NCI-H1651 | 0.488
57 | NCI-H1734 | 0.801
58 | NCI-H2009 | 0.73
59 | EPLC-272H | 0.622
60 | PC-14 | 0.678
61 | LCLC-97TM1 | 0.83
62 | NCI-H596 | 0.546
63 | NCI-H2228 | 0.768
64 | NCI-H2087 | 0.779
65 | HCC-44 | 1.05
66 | NCI-H647 | 0.66
67 | LK-2 | 0.259
68 | NCI-H2126 | 0.836
69 | NCI-H2342 | 0.682

Row | Cell Line | relative viability
70 | SK-MES-1 | 1.16
71 | HARA | 0.499
72 | COR-L23 | 0.559
73 | COR-L 105 | 0.957
74 | LC-2-ad | 0.674
75 | LU99A | 0.576
76 | ChaGo-K-1 | 0.81
77 | NCI-H2170 | 0.928
78 | NCI-H3122 | 0.938
79 | IA-LM | 0.971
80 | HCC-78 | 0.424
81 | LXF-289 | 0.798
82 | BEN | 0.516
83 | HCC-15 | 0.888
84 | HCC-827 | 0.837
85 | HCC-366 | 0.357

Same assay, conditions: first compound 0.1 µM

Row | Cell Line | relative viability
86 | NCI-H522 | 0.855
87 | NCI-H838 | 0.698
88 | NCI-H1651 | 0.583
89 | NCI-H1734 | 0.786
90 | NCI-H2009 | 0.692
91 | EPLC-272H | 0.469
92 | PC-14 | 0.704
93 | LCLC-97TM1 | 0.792
94 | NCI-H596 | 0.616
95 | NCI-H2228 | 0.633
96 | EMC-BAC-2 | 0.485
97 | NCI-H2087 | 0.968
98 | HCC-44 | 1.19
99 | NCI-H647 | 0.366
100 | LK-2 | 0.273
101 | NCI-H2126 | 0.691
102 | NCI-H2342 | 0.688
103 | SK-MES-1 | 0.954

Row | Cell Line | relative viability
104 | HARA | 0.532
105 | COR-L23 | 0.394
106 | COR-L 105 | 0.904
107 | LC-2-ad | 0.67
108 | LU99A | 0.43
109 | ChaGo-K-1 | 0.724
110 | NCI-H2170 | 0.697
111 | NCI-H3122 | 0.765
112 | IA-LM | 0.956
113 | HCC-78 | 0.493
114 | SW 900 | 0.428
115 | LXF-289 | 0.712
116 | BEN | 0.581
117 | HCC-15 | 0.844
118 | NCI-H1648 | 0.293
119 | HCC-827 | 0.809
120 | HCC-366 | 0.335

Same assay, conditions: first compound 0.3162 µM

Row | Cell Line | relative viability
121 | NCI-H522 | 0.92
122 | NCI-H838 | 0.722
123 | NCI-H1651 | 0.51
124 | NCI-H1734 | 0.946
125 | NCI-H2009 | 0.697
126 | EPLC-272H | 0.308
127 | PC-14 | 0.875
128 | LCLC-97TM1 | 0.832
129 | NCI-H596 | 0.592
130 | NCI-H2228 | 0.687
131 | EMC-BAC-2 | 0.447
132 | NCI-H2087 | 0.664
133 | HCC-44 | 1.06
134 | NCI-H647 | 0.679
135 | LK-2 | 0.354
136 | NCI-H2126 | 0.815
137 | NCI-H2342 | 0.788
138 | SK-MES-1 | 1.1

Row | Cell Line | relative viability
139 | HARA | 0.626
140 | COR-L23 | 0.5
141 | COR-L 105 | 1.08
142 | LC-2-ad | 0.736
143 | LU99A | 0.501
144 | ChaGo-K-1 | 0.745
145 | NCI-H2170 | 0.985
146 | NCI-H3122 | 1.14
147 | IA-LM | 0.905
148 | HCC-78 | 0.433
149 | SW 900 | 0.574
150 | LXF-289 | 0.723
151 | BEN | 0.595
152 | HCC-15 | 0.877
153 | NCI-H1648 | 0.466
154 | HCC-827 | 0.7
155 | HCC-366 | 0.426

Same assay, conditions: first compound 1 µM

Row | Cell Line | relative viability
156 | NCI-H522 | 0.8
157 | NCI-H838 | 0.738
158 | NCI-H1651 | 0.538
159 | NCI-H1734 | 0.757
160 | NCI-H2009 | 0.7
161 | EPLC-272H | 0.584
162 | PC-14 | 0.633
